Experiment: Study KAR5585-101 Part 1 (SAD): plasma pharmacokinetics after a single oral dose of KAR5585, fasting and fed (incl. dose proportionality and food effect)
Details: for half-life / AUC(0-t) / AUC / AUC(0-inf) / concentration at 12 h / Cmax / Tmax: human, po; for AUC: AUC0-tau; for AUC(0-inf): AUC0-∞; for Tmax: Median
[1] = 100 mg to 700 mg dose (7-fold increase in dose), fasting
[2] = 400 mg KAR5585, Cohort 3B (test) vs 3A (reference)
[3] = 400 mg KAR5585 single dose, Cohorts 3B vs 3A
[4] = 700 mg to 2000 mg (2.86-fold increase in dose), fasting
[5] = 100 to 2000 mg KAR5585 single oral dose, fasting, plasma analyte = label
[6] = KAR5417 after 100 mg KAR5585 single oral, fasted, Cohort 1, Geo. Mean
[7] = KAR5417 after 100 mg KAR5585 single oral, fasted, Cohort 1, Mean
[8] = KAR5417 after 200 mg KAR5585 single oral, fasted, Cohort 2, Geo. Mean
[9] = KAR5417 after 200 mg KAR5585 single oral, fasted, Cohort 2, Mean
[10] = KAR5417 after 400 mg KAR5585 single oral, fasted, Cohort 3A, Geo. Mean
[11] = KAR5417 after 400 mg KAR5585 single oral, fasted, Cohort 3A, Mean
[12] = KAR5417 after 400 mg KAR5585 single oral, fed, Cohort 3B, Geo. Mean
[13] = KAR5417 after 400 mg KAR5585 single oral, fed, Cohort 3B, Mean
[14] = KAR5417 after 700 mg KAR5585 single oral, fasted, Cohort 4, Geo. Mean
[15] = KAR5417 after 700 mg KAR5585 single oral, fasted, Cohort 4, Mean
[16] = KAR5417 after 1200 mg KAR5585 single oral, fasted, Cohort 5, Geo. Mean
[17] = KAR5417 after 1200 mg KAR5585 single oral, fasted, Cohort 5, Mean
[18] = KAR5417 after 2000 mg KAR5585 single oral, fasted, Cohort 6, Geo. Mean
[19] = KAR5417 after 2000 mg KAR5585 single oral, fasted, Cohort 6, Mean
[20] = plasma, 100 mg, KAR5417 after 100 mg KAR5585 single oral, fasted, Cohort 1, Geo. Mean
[21] = plasma, 100 mg, KAR5417 after 100 mg KAR5585 single oral, fasted, Cohort 1, Mean
[22] = plasma, 200 mg, KAR5417 after 200 mg KAR5585 single oral, fasted, Cohort 2, Geo. Mean
[23] = plasma, 200 mg, KAR5417 after 200 mg KAR5585 single oral, fasted, Cohort 2, Mean

Nc1nc(O[C@H](c2ccc(Cl)cc2-c2ccccc2)C(F)(F)F)cc(N2CCC3(CC2)CN[C@H](C(=O)O)C3)n1 [KAR5417, (S)-8-(2-amino-6-((R)-1-(5-chloro-[1,1T-biphenyl]-2-yl)-2,2,2-trifluoroeth-oxy)pyrimidin-4-yl)-2,8-diazaspiro[4.5]decane-3-carboxylic acid]
fold increase in mean AUC0-24 [1]: 6.3 fold | fold increase in mean AUC0-inf [1]: 6.8 fold | fold increase in mean Cmax [1]: 7.27 fold | AUC0-inf, Geometric LS Mean Ratio (fed/fasting) [2]: 2.02 | AUC0-tau, Geometric LS Mean Ratio (fed/fasting) [2]: 2.04 | exposure as assessed by AUC0-tau and AUC0-inf, fed relative to fasting (400 mg KAR5585 single dose): approximately 2 fold | fold increase in Cmax, fed vs fasting [3]: 1.8 fold | fold increase in mean AUC0-inf, fed vs fasting [3]: 1.8 fold | peak mean concentration under fed relative to fasting conditions, % higher [3]: approximately 177% | fold increase in AUC0-24 [4]: 1.7 fold | fold increase in AUC0-inf [4]: 1.81 fold | fold increase in Cmax [4]: 1.38 fold | Dose proportionality power model, AUC0-12: Intercept estimate [5]: 14.5 | Dose proportionality power model, AUC0-inf: Intercept estimate [5]: 12.3 | Dose proportionality power model, AUC0-tau: Intercept estimate [5]: 6.54 | Dose proportionality power model, Cmax: Intercept estimate [5]: 1.95 | AUC0-24/D [6]: 8.16 (hr*ng/mL)/mg | Cmax/D [6]: 0.931 (ng/ml)/mg | AUC0-24/D [7]: 8.47 (hr*ng/mL)/mg | Cmax/D [7]: 1.07 (ng/ml)/mg | t1/2 [7]: 4.67 h | AUC0-24/D [8]: 4.70 (hr*ng/mL)/mg | Cmax/D [8]: 0.658 (ng/ml)/mg | AUC0-24/D [9]: 5.81 (hr*ng/mL)/mg | Cmax/D [9]: 0.801 (ng/ml)/mg | AUC0-24/D [10]: 7.43 (hr*ng/mL)/mg | Cmax/D [10]: 1.11 (ng/ml)/mg | AUC0-24/D [11]: 8.12 (hr*ng/mL)/mg | Cmax/D [11]: 1.21 (ng/ml)/mg | AUC0-24/D [12]: 13.4 (hr*ng/mL)/mg | Cmax/D [12]: 2.08 (ng/ml)/mg | AUC0-24/D [13]: 13.6 (hr*ng/mL)/mg | Cmax/D [13]: 2.15 (ng/ml)/mg | AUC0-24/D [14]: 5.31 (hr*ng/mL)/mg | Cmax/D [14]: 0.777 (ng/ml)/mg | AUC0-24/D [15]: 7.58 (hr*ng/mL)/mg | Cmax/D [15]: 1.11 (ng/ml)/mg | AUC0-24/D [16]: 4.84 (hr*ng/mL)/mg | Cmax/D [16]: 0.636 (ng/ml)/mg | AUC0-24/D [17]: 5.66 (hr*ng/mL)/mg | Cmax/D [17]: 0.747 (ng/ml)/mg | AUC0-24/D [18]: 4.26 (hr*ng/mL)/mg | Cmax/D [18]: 0.515 (ng/ml)/mg | AUC0-24/D [19]: 4.54 (hr*ng/mL)/mg | Cmax/D [19]: 0.542 (ng/ml)/mg | half-life (in vivo, 700 mg): 12.1 h | AUC(0-t) (plasma, 100 mg, AUC0-12, KAR5417 after 100 mg KAR5585 single oral, fasted, Cohort 1, Geo. Mean): 686 ng·h/mL | AUC(0-t) (plasma, 100 mg, AUC0-12, KAR5417 after 100 mg KAR5585 single oral, fasted, Cohort 1, Mean): 704 ng·h/mL | AUC(0-t) (plasma, 100 mg, AUC0-24, KAR5417 after 100 mg KAR5585 single oral, fasted, Cohort 1, Geo. Mean): 816 ng·h/mL | AUC(0-t) (plasma, 100 mg, AUC0-24, KAR5417 after 100 mg KAR5585 single oral, fasted, Cohort 1, Mean): 847 ng·h/mL | AUC [20]: 605 ng·h/mL | AUC [21]: 718 ng·h/mL | AUC(0-inf) [20]: 847 ng·h/mL | AUC(0-inf) [21]: 886 ng·h/mL | concentration at 12 h (plasma, 100 mg, C12, KAR5417 after 100 mg KAR5585 single oral, fasted, Cohort 1, Geo. Mean): 22.5 ng/mL | concentration at 12 h (plasma, 100 mg, C12, KAR5417 after 100 mg KAR5585 single oral, fasted, Cohort 1, Mean): 23.8 ng/mL | Cmax [20]: 93.1 ng/mL | Cmax [21]: 107 ng/mL | AUC(0-t) (plasma, 100 mg, Plasma AUC0-96, KAR5417 in plasma, 100 mg KAR5585 single oral dose, mean): 889 ng·h/mL | half-life (plasma, 100 mg, t1/2, KAR5417 after 100 mg KAR5585 single oral, fasted, Cohort 1, Geo. Mean): 4.51 h | half-life (plasma, 100 mg, t1/2, KAR5417 after 100 mg KAR5585 single oral, fasted, Cohort 1, Mean): 4.7 h | Tmax (plasma, 100 mg, KAR5417 after 100 mg KAR5585 single oral, fasted, Cohort 1): 4 h | AUC(0-t) (plasma, 200 mg, AUC0-12, KAR5417 after 200 mg KAR5585 single oral, fasted, Cohort 2, Geo. Mean): 771 ng·h/mL | AUC(0-t) (plasma, 200 mg, AUC0-12, KAR5417 after 200 mg KAR5585 single oral, fasted, Cohort 2, Mean): 947 ng·h/mL | AUC(0-t) (plasma, 200 mg, AUC0-24, KAR5417 after 200 mg KAR5585 single oral, fasted, Cohort 2, Geo. Mean): 940 ng·h/mL | AUC(0-t) (plasma, 200 mg, AUC0-24, KAR5417 after 200 mg KAR5585 single oral, fasted, Cohort 2, Mean): 1160 ng·h/mL | AUC [22]: 866 ng·h/mL | AUC [23]: 1120 ng·h/mL | AUC(0-inf) [22]: 988 ng·h/mL | AUC(0-inf) [23]: 1230 ng·h/mL | concentration at 12 h (plasma, 200 mg, C12, KAR5417 after 200 mg KAR5585 single oral, fasted, Cohort 2, Geo. Mean): 27.3 ng/mL | concentration at 12 h (plasma, 200 mg, C12, KAR5417 after 200 mg KAR5585 single oral, fasted, Cohort 2, Mean): 32.9 ng/mL | Cmax [22]: 132 ng/mL | Cmax [23]: 160 ng/mL | AUC(0-t) (plasma, 200 mg, Plasma AUC0-96, KAR5417 in plasma, 200 mg KAR5585 single oral dose, mean): 1240 ng·h/mL | half-life (plasma, 200 mg, t1/2, KAR5417 after 200 mg KAR5585 single oral, fasted, Cohort 2, Geo. Mean): 5.29 h | half-life (plasma, 200 mg, t1/2, KAR5417 after 200 mg KAR5585 single oral, fasted, Cohort 2, Mean): 5.4 h | Tmax (plasma, 200 mg, KAR5417 after 200 mg KAR5585 single oral, fasted, Cohort 2): 3 h | AUC(0-t) (plasma, 400 mg, AUC0-12, KAR5417 after 400 mg KAR5585 single oral, fasted, Cohort 3A, Geo. Mean): 2460 ng·h/mL | AUC(0-t) (plasma, 400 mg, AUC0-12, KAR5417 after 400 mg KAR5585 single oral, fasted, Cohort 3A, Mean): 2690 ng·h/mL | AUC(0-t) (plasma, 400 mg, AUC0-12, KAR5417 after 400 mg KAR5585 single oral, fed, Cohort 3B, Geo. Mean): 4170 ng·h/mL | AUC(0-t) (plasma, 400 mg, AUC0-12, KAR5417 after 400 mg KAR5585 single oral, fed, Cohort 3B, Mean): 4240 ng·h/mL | AUC(0-t) (plasma, 400 mg, AUC0-24, KAR5417 after 400 mg KAR5585 single oral, fasted, Cohort 3A, Geo. Mean): 2970 ng·h/mL | AUC(0-t) (plasma, 400 mg, AUC0-24, KAR5417 after 400 mg KAR5585 single oral, fasted, Cohort 3A, Mean): 3250 ng·h/mL | AUC(0-t) (plasma, 400 mg, AUC0-24, KAR5417 after 400 mg KAR5585 single oral, fed, Cohort 3B, Geo. Mean): 5370 ng·h/mL | AUC(0-t) (plasma, 400 mg, AUC0-24, KAR5417 after 400 mg KAR5585 single oral, fed, Cohort 3B, Mean): 5430 ng·h/mL

From US20240041877A1, “DOSAGE REGIME AND METHOD FOR TREATING PULMONARY ARTERIAL HYPERTENSION” (Altavant Sciences GmbH, priority 2019, published 2024)
